Measured values published in BindingDB's records for doi:10.1021/jm800940u (Schering-Plough Research Institute, 2009).

molecular target: Genome polyprotein (Hepatitis C virus genotype 1a (isolate H77), UniProt P27958); assay: Continuous Spectrophotometric Assay; conditions: not given
Protocol: Proteolytic cleavage of the ester linkage between the Nva (L-norvaline) and the chromophore (PAP) was monitored for change in absorbance at 370 nm. Initial velocities were determined using linear regression and kinetic constants were obtained by fitting the data to the Michaelis-Menten equation.

Genome polyprotein, sequence (P27958 1027-1657 limits assumed): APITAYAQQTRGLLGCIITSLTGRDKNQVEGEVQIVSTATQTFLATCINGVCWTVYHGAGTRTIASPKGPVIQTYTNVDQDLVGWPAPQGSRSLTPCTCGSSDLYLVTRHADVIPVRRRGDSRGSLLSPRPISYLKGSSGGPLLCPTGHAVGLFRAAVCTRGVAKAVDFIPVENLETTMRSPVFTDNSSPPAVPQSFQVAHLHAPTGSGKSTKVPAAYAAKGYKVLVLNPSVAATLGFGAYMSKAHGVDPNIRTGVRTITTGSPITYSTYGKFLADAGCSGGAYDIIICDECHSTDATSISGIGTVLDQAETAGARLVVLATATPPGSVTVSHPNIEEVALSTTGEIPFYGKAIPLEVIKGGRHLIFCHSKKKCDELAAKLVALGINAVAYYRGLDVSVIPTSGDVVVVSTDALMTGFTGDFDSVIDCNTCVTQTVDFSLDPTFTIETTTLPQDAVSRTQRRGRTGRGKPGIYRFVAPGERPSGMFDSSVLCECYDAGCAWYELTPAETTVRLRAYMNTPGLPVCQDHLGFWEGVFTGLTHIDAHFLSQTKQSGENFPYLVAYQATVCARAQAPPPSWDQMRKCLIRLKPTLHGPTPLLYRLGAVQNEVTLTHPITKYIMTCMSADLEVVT

First: C=CCNC(=O)C(=O)[C@@H]1CCCCCCCCC[C@H](NC(=O)N[C@H](CN(C)S(=O)(=O)N(C)C)C(C)(C)C)C(=O)N2C[C@H]3[C@@H]([C@H]2C(=O)N1)C3(C)C [2-[(3S,13S,16S,17R,19S)-3-({[(2S)-1-[(dimethylsulfamoyl)(methyl)amino]-3,3-dimethylbutan-2-yl]carbamoyl}amino)-18,18-dimethyl-2,15-dioxo-1,14-diazatricyclo[14.4.0.0^{17,19}]icosan-13-yl]-2-oxo-N-(prop-2-en-1-yl)acetamide]
Second: C=CCNC(=O)C(=O)[C@@H]1CCCCCCCCC[C@H](NC(=O)N[C@H](CN2C(=O)CC(C)(C)CC2=O)C(C)(C)C)C(=O)N2C[C@H]3[C@@H]([C@H]2C(=O)N1)C3(C)C [2-[(3S,13S,16S,17R,19S)-3-({[(2S)-1-(4,4-dimethyl-2,6-dioxopiperidin-1-yl)-3,3-dimethylbutan-2-yl]carbamoyl}amino)-18,18-dimethyl-2,15-dioxo-1,14-diazatricyclo[14.4.0.0^{17,19}]icosan-13-yl]-2-oxo-N-(prop-2-en-1-yl)acetamide]
The Ki of the first is 6.5-fold higher: 13 nM for the first, 2 nM for the second. The second binds more tightly here.

Work on `C=CCNC(=O)C(=O)[C@@H]1CCCCCCCCC[C@H](NC(=O)N[C@H](CN2C(=O)c3ccccc3C2=O)C(C)(C)C)C(=O)N2C[C@H]3[C@@H]([C@H]2C(=O)N1)C3(C)C` [2-[(3S,13S,16S,17R,19S)-3-({[(2S)-1-(1,3-dioxo-2,3-dihydro-1H-isoindol-2-yl)-3,3-dimethylbutan-2-yl]carbamoyl}amino)-18,18-dimethyl-2,15-dioxo-1,14-diazatricyclo[14.4.0.0^{17,19}]icosan-13-yl]-2-oxo-N-(prop-2-en-1-yl)acetamide] yielded a Ki of 16 nM.

same assay, conditions: pH 6.5; 30 °C

Compared with `CN(C[C@@H](NC(=O)N[C@H]1CCCCCCCCC[C@@H](C(=O)C(N)=O)NC(=O)[C@@H]2[C@@H]3[C@H](CN2C1=O)C3(C)C)C(C)(C)C)S(C)(=O)=O` [2-[(3S,13S,16S,17R,19S)-3-({[(2S)-1-[methane(methyl)sulfonamido]-3,3-dimethylbutan-2-yl]carbamoyl}amino)-18,18-dimethyl-2,15-dioxo-1,14-diazatricyclo[14.4.0.0^{17,19}]icosan-13-yl]-2-oxoacetamide], `CN(C[C@@H](NC(=O)N[C@H]1CCCCCCCCC[C@@H](C(=O)C(N)=O)NC(=O)[C@@H]2[C@@H]3[C@H](CN2C1=O)C3(C)C)C(C)(C)C)S(=O)(=O)c1cccs1` [2-[(3S,13S,16S,17R,19S)-3-({[(2S)-3,3-dimethyl-1-[methyl(thiophene-2-)sulfonamido]butan-2-yl]carbamoyl}amino)-18,18-dimethyl-2,15-dioxo-1,14-diazatricyclo[14.4.0.0^{17,19}]icosan-13-yl]-2-oxoacetamide] is 1.5-fold lower in Ki: 3 nM for the first, 2 nM for the second. The second binds more tightly here.

Going from `CC1(NC(=O)N[C@H]2CCCCCCCCCC[C@@H](C(=O)C(N)=O)NC(=O)[C@@H]3[C@@H]4[C@H](CN3C2=O)C4(C)C)CCCCC1` [2-[(3S,14S,17S,18R,20S)-19,19-dimethyl-3-{[(1-methylcyclohexyl)carbamoyl]amino}-2,16-dioxo-1,15-diazatricyclo[15.4.0.0^{18,20}]henicosan-14-yl]-2-oxoacetamide] to `CC(C)(C)OC(=O)N[C@H]1CCCCCCCCCC[C@@H](C(=O)C(N)=O)NC(=O)[C@@H]2[C@@H]3[C@H](CN2C1=O)C3(C)C` [tert-butyl N-[(3S,14S,17S,18R,20S)-14-(carbamoylcarbonyl)-19,19-dimethyl-2,16-dioxo-1,15-diazatricyclo[15.4.0.0^{18,20}]henicosan-3-yl]carbamate], the Ki rises from 36 nM to 59 nM (1.6-fold). The first binds more tightly here.

Compared with `CC(C)(C)OC(=O)N[C@H]1CCCCCCCC[C@@H](C(=O)C(N)=O)NC(=O)[C@@H]2[C@@H]3[C@H](CN2C1=O)C3(C)C` [tert-butyl N-[(3S,12S,15S,16R,18S)-12-(carbamoylcarbonyl)-17,17-dimethyl-2,14-dioxo-1,13-diazatricyclo[13.4.0.0^{16,18}]nonadecan-3-yl]carbamate], `CC(C)(C)OC(=O)N[C@H]1CCCCCCC[C@@H](C(=O)C(N)=O)NC(=O)[C@@H]2[C@@H]3[C@H](CN2C1=O)C3(C)C` [tert-butyl N-[(3S,11S,14S,15R,17S)-11-(carbamoylcarbonyl)-16,16-dimethyl-2,13-dioxo-1,12-diazatricyclo[12.4.0.0^{15,17}]octadecan-3-yl]carbamate] is 5.8-fold higher in Ki: 36 nM for the first, 210 nM for the second. The first binds more tightly here.

First: CC(C)(C)NC(=O)C(=O)[C@@H]1CCCCCCCCCC[C@H](NC(=O)OC(C)(C)C)C(=O)N2C[C@H]3[C@@H]([C@H]2C(=O)N1)C3(C)C [tert-butyl N-[(3S,14S,17S,18R,20S)-14-[(tert-butylcarbamoyl)carbonyl]-19,19-dimethyl-2,16-dioxo-1,15-diazatricyclo[15.4.0.0^{18,20}]henicosan-3-yl]carbamate]
Second: CC(C)(C)OC(=O)N[C@H]1CCCCCCCCCC[C@@H](C(=O)C(=O)NCC(=O)NCc2ccccc2)NC(=O)[C@@H]2[C@@H]3[C@H](CN2C1=O)C3(C)C [tert-butyl N-[(3S,14S,17S,18R,20S)-14-({[(benzylcarbamoyl)methyl]carbamoyl}carbonyl)-19,19-dimethyl-2,16-dioxo-1,15-diazatricyclo[15.4.0.0^{18,20}]henicosan-3-yl]carbamate]
The Ki of the first is 67-fold higher: 6000 nM for the first, 89 nM for the second. The second binds more tightly here.

`CCCNC(=O)C(=O)[C@@H]1CCCCCCCCC[C@H](NC(=O)N[C@H](CN(C)S(=O)(=O)c2cccs2)C(C)(C)C)C(=O)N2C[C@H]3[C@@H]([C@H]2C(=O)N1)C3(C)C` [2-[(3S,13S,16S,17R,19S)-3-({[(2S)-3,3-dimethyl-1-[methyl(thiophene-2-)sulfonamido]butan-2-yl]carbamoyl}amino)-18,18-dimethyl-2,15-dioxo-1,14-diazatricyclo[14.4.0.0^{17,19}]icosan-13-yl]-2-oxo-N-propylacetamide] and `CCNC(=O)C(=O)[C@@H]1CCCCCCCCC[C@H](NC(=O)N[C@H](CN(C)S(=O)(=O)c2cccs2)C(C)(C)C)C(=O)N2C[C@H]3[C@@H]([C@H]2C(=O)N1)C3(C)C` [2-[(3S,13S,16S,17R,19S)-3-({[(2S)-3,3-dimethyl-1-[methyl(thiophene-2-)sulfonamido]butan-2-yl]carbamoyl}amino)-18,18-dimethyl-2,15-dioxo-1,14-diazatricyclo[14.4.0.0^{17,19}]icosan-13-yl]-N-ethyl-2-oxoacetamide] are within 1.5-fold of each other in Ki: 14 nM for the first, 10 nM for the second.

`CN(C)C(=O)[C@@H](NC(=O)CNC(=O)C(=O)[C@@H]1CCCCCCCCCC[C@H](NC(=O)NC(C)(C)C)C(=O)N2C[C@H]3[C@@H]([C@H]2C(=O)N1)C3(C)C)c1ccccc1` [2-[(3S,14S,17S,18R,20S)-3-[(tert-butylcarbamoyl)amino]-19,19-dimethyl-2,16-dioxo-1,15-diazatricyclo[15.4.0.0^{18,20}]henicosan-14-yl]-N-({[(S)-(dimethylcarbamoyl)(phenyl)methyl]carbamoyl}methyl)-2-oxoacetamide] and `CN(C)C(=O)[C@@H](NC(=O)CNC(=O)C(=O)[C@@H]1CCCCCCCCCC[C@H](NC(=O)OC(C)(C)C)C(=O)N2C[C@H]3[C@@H]([C@H]2C(=O)N1)C3(C)C)c1ccccc1` [tert-butyl N-[(3S,14S,17S,18R,20S)-14-{[({[(S)-(dimethylcarbamoyl)(phenyl)methyl]carbamoyl}methyl)carbamoyl]carbonyl}-19,19-dimethyl-2,16-dioxo-1,15-diazatricyclo[15.4.0.0^{18,20}]henicosan-3-yl]carbamate] are the same in Ki: 6 nM for the first, 6 nM for the second.

`C=CCCCC[C@H](NC(=O)[C@@H]1[C@@H]2[C@H](CN1C(=O)[C@H](CCCCC=C)NC(=O)OC(C)(C)C)C2(C)C)C(=O)C(N)=O` [tert-butyl N-[(2S)-1-[(1R,2S,5S)-2-{[(2S)-1-carbamoyl-1-oxooct-7-en-2-yl]carbamoyl}-6,6-dimethyl-3-azabicyclo[3.1.0]hexan-3-yl]-1-oxooct-7-en-2-yl]carbamate] showed a Ki of 250 nM.
